# Measurements taken from EP4574818A1, “ONIUM SALT OF NITROGEN-CONTAINING HETEROARYL COMPOUND AND PEST CONTROL AGENT” (priority 2022, dated 2024).
# Read-outs that look alike come from different tables or passages of the source.
# Tests used:
# Type in all cases: in vivo
# [1] = test system: Mythimna separata; experiment: Efficacy test against Mythimna separata (treated artificial feed); conditions: 1 µl of emulsion (I) (5% by mass active ingredient) mixed with 0.8 g artificial feed; second-instar larvae; 25°C; after five days
# Method: (§1) 5 parts by mass of a compound of the present invention, 93.6 parts by mass of dimethylformamide, and 1.4 parts by mass of polyoxyethylene alkyl aryl ether were mixed and dissolved to obtain an emulsion (I) containing 5% by mass of the active ingredient.
# 0.8 g of commercially-available artificial feed (Insect LFS, manufactured by Nosan Corporation) and 1 µl of the emulsion (I) were mixed well, and then 0.2 g of the mixture per treated area was packed into plastic test containers (each having a capacity of 1.4 ml) as test feeds.
# Two second-instar larvae of Mythimna separata were left per treated area, and then the test containers were sealed with plastic covers. The test containers were placed in a thermostatic chamber at 25°C, and, after five days had passed therefrom, the mortality and the feed intake were measured. The test was repeated twice.
# In addition, the test was carried out under the same conditions as described above, except that the emulsion (II) was used instead of the emulsion (I), and evaluated as a solvent control area.
# [2] = test system: Spodoptera litura; experiment: Efficacy test against Spodoptera litura (cabbage leaf immersion); conditions: 144 h, read-out: mortality of Spodoptera litura
# Method: A cabbage leaf was immersed in the diluted solution for 30 seconds. The cabbage leaf was air-dried and then put in a petri dish, followed by leaving five second-instar larvae of Spodoptera litura therein. The petri dish was placed in a thermostatic chamber at a temperature of 25°C and a humidity of 60%. After six days had passed from leaving the larvae, life or death was assessed and the mortality was calculated. The test was repeated twice.
# [3] = test system: Plutella xylostella; experiment: Efficacy test against Plutella xylostella (cabbage leaf immersion); conditions: 72 h
# Method: The emulsion (II) was diluted with water at the same dilution ratio as the diluted solution (I), thereby obtaining a diluted solution (II). A cabbage leaf was immersed in each of the diluted solutions for 30 seconds. Each cabbage leaf after immersion was air-dried and then put in a petri dish, followed by leaving five second-instar larvae of Plutella xylostella therein. The petri dishes were placed in a thermostatic chamber at a temperature of 25°C and a humidity of 60%. After three days had passed from leaving the larvae, life or death was assessed and the mortality was calculated. The test was repeated twice.
# [4] = test system: Phyllotreta striolata; experiment: Efficacy test against Phyllotreta striolata (sprayed bok-choy seedling); conditions: 168 h, read-out: mortality against the adults of Phyllotreta striolata
# Method: as §1
# The emulsion (I) was diluted with water such that the concentration of the compound of the present invention became 125 ppm by mass. The diluted solution was sprayed to a bok-choy seedling (at the 7th leafe stage) planted in a 3-sun pot. After air-dried, the bok-choy seedling was placed in a plastic cup, and ten adults of Phyllotreta striolata were left therein. The plastic cup was placed in a thermostatic chamber at a temperature of 25°C and a humidity of 65%. After seven days had passed from leaving the adults, life or death was assessed and the mortality was calculated. The test was repeated twice.
# [5] = 125 ppm by mass, cabbage leaf immersed 30 seconds, second-instar larvae, 25°C, humidity 60%, after six days
# [6] = 125 ppm by mass, cabbage leaf immersed 30 seconds, second-instar larvae of Plutella xylostella, 25°C, humidity 60%, after three days, read-out: mortality
# [7] = 125 ppm by mass, sprayed to bok-choy seedling, adults, 25°C, humidity 65%, after seven days
SMILES,mortality of Mythimna separata or feed intake relative to the feed intake at the solvent control area [1],"mortality at 125 ppm [2, 5]","mortality at 125 ppm [3, 6]",also measured
Cn1c[n+]([N-]C(=O)c2cc(Cl)nc(Oc3ccc(OC(F)(F)F)cc3)c2)cn1 [Compound 2],100% mortality of Mythimna separata or 10% or less of the feed intake,≥ 80%,–,–
O=C([N-][n+]1ccccc1)c1cc(Cl)nc(Oc2ccc(OC(F)(F)C(F)F)cc2)c1 [Compound 4],100% mortality of Mythimna separata or 10% or less of the feed intake,≥ 80%,≥ 80%,–
Cc1cc[n+]([N-]C(=O)c2cc(Cl)nc(Oc3ccc(OC(F)(F)C(F)(F)F)cc3)c2)cc1 [Compound 5],–,≥ 80%,≥ 80%,–
COc1cc[n+]([N-]C(=O)c2cc(Cl)nc(Oc3ccc(OC(F)(F)C(F)(F)F)cc3)c2)cc1 [Compound 6],–,≥ 80%,≥ 80%,–
Cn1c[n+]([N-]C(=O)c2cc(Cl)nc(Oc3ccc(OC(F)(F)C(F)(F)F)cc3)c2)cn1 [Compound 8],–,≥ 80%,–,–
Cn1cc[n+]([N-]C(=O)c2cc(Cl)nc(Oc3ccc(OC(F)(F)C(F)(F)F)cc3)c2)c1 [Compound 9],–,≥ 80%,≥ 80%,–
O=C([N-][n+]1cccc(F)c1)c1cc(Cl)nc(Oc2ccc(OC(F)(F)C(F)F)cc2)c1 [Compound 11],–,≥ 80%,≥ 80%,–
O=C([N-][n+]1ccccc1)c1cc(Br)nc(Oc2ccc(OC(F)(F)C(F)(F)F)cc2)c1 [Compound 12],–,≥ 80%,≥ 80%,–
O=C([N-][n+]1ccccc1)c1cc(Br)nc(Oc2ccc(OC(F)(F)C(F)F)cc2)c1 [Compound 13],–,≥ 80%,≥ 80%,–
N#Cc1cc(C(=O)[N-][n+]2ccccc2)cc(Oc2ccc(OC(F)(F)C(F)(F)F)cc2)n1 [Compound 14],–,≥ 80%,≥ 80%,–
O=C([N-][n+]1ccccc1)c1cc(Cl)nc(Oc2ccc(C3(C(F)(F)F)CC3)cc2)c1 [Compound 15],–,≥ 80%,≥ 80%,–
O=C([N-][n+]1ccccc1)c1cc(Cl)nc(Oc2ccc(OC(F)(F)C(F)OC(F)(F)F)cc2)c1 (centres unmarked) [Compound 16],–,≥ 80%,≥ 80%,–
O=C([N-][n+]1cnn(CC(F)(F)F)c1)c1cc(Cl)nc(Oc2ccc(OC(F)(F)C(F)(F)F)cc2)c1 [Compound 17],–,≥ 80%,≥ 80%,–
O=C([N-][n+]1cnn(CC(F)F)c1)c1cc(Cl)nc(Oc2ccc(OC(F)(F)C(F)(F)F)cc2)c1 [Compound 18],–,≥ 80%,≥ 80%,–
CC(C)n1c[n+]([N-]C(=O)c2cc(Cl)nc(Oc3ccc(OC(F)(F)C(F)(F)F)cc3)c2)cn1 [Compound 19],–,≥ 80%,≥ 80%,"mortality at 125 ppm [4, 7]: ≥ 80%"
O=C([N-][n+]1ccccc1)c1cc(Cl)nc(Oc2ccc(OC(F)(F)C(F)OC(F)(F)C(F)(F)C(F)(F)F)cc2)c1 (centres unmarked) [Compound 20],–,–,–,mortality at 125 ppm [2]: ≥ 80%; mortality at 125 ppm ([3]; Plutella xylostella): ≥ 80%; mortality at 125 ppm [4]: ≥ 80%
CCn1c[n+]([N-]C(=O)c2cc(Cl)nc(Oc3ccc(OC(F)(F)C(F)OC(F)(F)C(F)(F)C(F)(F)F)cc3)c2)cn1 (centres unmarked) [Compound 21],–,–,–,mortality at 125 ppm [2]: ≥ 80%; mortality at 125 ppm ([3]; Plutella xylostella): ≥ 80%; mortality at 125 ppm [4]: ≥ 80%
O=C([N-][n+]1ccccc1)c1cc(Cl)nc(Oc2ccc(OC(F)(F)C(F)OC(F)(F)C(F)(F)C(F)(F)OC(F)(F)F)cc2)c1 (centres unmarked) [Compound 22],–,–,–,mortality at 125 ppm [2]: ≥ 80%; mortality at 125 ppm ([3]; Plutella xylostella): ≥ 80%; mortality at 125 ppm [4]: ≥ 80%

SMILES,mortality of Mythimna separata or feed intake relative to the feed intake at the solvent control area [1],"mortality at 125 ppm [2, 5]","mortality at 125 ppm [3, 6]",also measured
CCn1c[n+]([N-]C(=O)c2cc(Cl)nc(Oc3ccc(OC(F)(F)C(F)OC(F)(F)C(F)(F)C(F)(F)OC(F)(F)F)cc3)c2)cn1 (centres unmarked) [Compound 23],–,–,–,mortality at 125 ppm [2]: ≥ 80%; mortality at 125 ppm ([3]; Plutella xylostella): ≥ 80%; mortality at 125 ppm [4]: ≥ 80%
"O=C([N-][n+]1ccccc1)c1cc(Cl)nc(Oc2ccc(SC(F)(F)F)cc2)c1 [Compound 25, (2-chloro-6-(4-((trifluoromethyl)thio)phenoxy)isonicotinoyl) (pyridin-1-ium-1-yl)amide]",–,≥ 80%,≥ 80%,"mortality at 125 ppm [4, 7]: ≥ 80%"
"CCn1c[n+]([N-]C(=O)c2cc(Cl)nc(Oc3ccc(OC(F)(F)F)cc3)c2)cn1 [Compound 165, (2-chloro-6-(4-(trifluoromethoxy)phenoxy)isonicotinoyl)(1-ethyl-1H-1,2,4-triazol-4-ium-4-yl)amide]",100% mortality of Mythimna separata or 10% or less of the feed intake,≥ 80%,≥ 80%,–
O=C([N-][n+]1ccccc1)c1cc(Oc2ccc(OC(F)(F)F)cc2)nc(-c2ccc(F)cc2)c1 [Compound 207],100% mortality of Mythimna separata or 10% or less of the feed intake,≥ 80%,≥ 80%,–
O=C([N-][n+]1ccccc1)c1cc(Oc2ccc(OC(F)(F)F)cc2)nc(Oc2ccc(OC(F)(F)F)cc2)c1 [Compound 208],–,≥ 80%,≥ 80%,–
N#Cc1ccc(Oc2cc(C(=O)[N-][n+]3ccccc3)cc(Cl)n2)cc1 [Compound 209],100% mortality of Mythimna separata or 10% or less of the feed intake,–,–,–
CCn1c[n+]([N-]C(=O)c2cc(Cl)nc(Oc3ccc(C4CC4(Cl)Cl)cc3)c2)cn1 (centres unmarked) [Compound 210],100% mortality of Mythimna separata or 10% or less of the feed intake,–,–,–
O=C([N-][n+]1ccccc1)c1cc(Cl)nc(Oc2ccc(C3CC3(Cl)Cl)cc2)c1 (centres unmarked) [Compound 211],100% mortality of Mythimna separata or 10% or less of the feed intake,–,–,"mortality at 125 ppm [4, 7]: ≥ 80%"
CCn1c[n+]([N-]C(=O)c2cc(Cl)nc(Oc3ccc(C4CC4(F)F)cc3)c2)cn1 (centres unmarked) [Compound 212],100% mortality of Mythimna separata or 10% or less of the feed intake,–,–,–
O=C([N-][n+]1ccccc1)c1cc(Cl)nc(Oc2ccc(C3CC3(F)F)cc2)c1 (centres unmarked) [Compound 213],100% mortality of Mythimna separata or 10% or less of the feed intake,–,–,–
"O=C([N-][n+]1ccccc1)c1cc(Oc2ccc(OC(F)(F)C(F)(F)F)cc2)nc(C2CC2)c1 [Compound 215, (2-cyclopropyl-6-(4-(perfluoroethoxy)phenoxy)isonicotinoyl)(pyridin-1-ium-1-yl)amide]",100% mortality of Mythimna separata or 10% or less of the feed intake,≥ 80%,≥ 80%,–
CCn1c[n+]([N-]C(=O)c2cc(Cl)nc(Oc3ccc4nc(C(F)(F)F)ccc4c3)c2)cn1 [Compound 216],100% mortality of Mythimna separata or 10% or less of the feed intake,–,–,–
O=C([N-][n+]1ccccc1)c1cc(Cl)nc(Oc2cnn(C=C(F)C(F)(F)F)c2)c1 [Compound 217],–,≥ 80%,–,–
CCn1c[n+]([N-]C(=O)c2cc(I)nc(Oc3ccc(OC(F)(F)C(F)(F)F)cc3)c2)cn1 [Compound 218],–,≥ 80%,≥ 80%,"mortality at 125 ppm [4, 7]: ≥ 80%"
"O=C([N-][n+]1ccccc1)c1cc(I)nc(Oc2ccc(OC(F)(F)C(F)(F)F)cc2)c1 [Compound 219, (2-iodo-6-(4-(perfluoroethoxy)phenoxy)isonicotinoyl)(pyridin-1-ium-1-yl)amide]",–,≥ 80%,≥ 80%,"mortality at 125 ppm [4, 7]: ≥ 80%"
COC(=O)c1cc(C(=O)[N-][n+]2ccccc2)cc(Oc2ccc(OC(F)(F)C(F)(F)F)cc2)n1 [Compound 220],–,–,≥ 80%,–
O=C([N-][n+]1ccccc1)c1cc(Oc2ccc(SC(F)(F)C(F)F)cc2)nc(-n2cccn2)c1 [Compound 221],–,≥ 80%,≥ 80%,–
